Results on 1 molecule are retold here after paper PMC7778552, “A Double-Edged Sword: The Anti-Cancer Effects of Emodin by Inhibiting the Redox-Protective Protein MTH1 and Augmenting ROS in NSCLC” (Journal of Cancer, 2021).

Broadly, the Kd is the concentration at which binding is half-saturated. A lower Kd goes with higher affinity.

SMILES strings stand for the structures.

This assay addresses T1, MutT homolog 1 (MTH1) (Homo sapiens, UniProt P36639).
T1 construct: gene NUDT1; N-terminal His-tagged, expressed in E. coli BL21-codon plus
Nature of the assay: SPR with immobilized purified MTH1 (amine coupling). It counts as binding.

On to `Cc1cc(O)c2c(c1)C(=O)c1cc(O)cc(O)c1C2=O` [emodin, 1,3,8-trihydroxy-6-methylanthraquinone], for which the Kd was 22.2 ± 0.68 µM.
